The experiment has as its target T1, chimeric human H3 receptor (Homo sapiens, UniProt Q9Y5N1).
T1 construct: rat Galpha-i2 (Gnai2, rat); made in house; host or cells: Sf9 insect cells (baculovirus); P2 membranes
As to the kind of experiment: Chimeric human H3 receptor screening GTP binding assay (inhibition of histamine-stimulated GTP-gamma35S binding, Example 8). It is filed as biochemical. In outline:
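Sf9 membranes co-expressing chimeric human H3 receptor and heterotrimeric G-protein (35 μg protein) incubated 60 min at room temperature with 4 μM compound, 1 μM histamine and 125 pM GTP-gamma35S in pH 7.4 buffer with 10 μM GDP. Filter-bound radioactivity, nonspecific (10 μM GTP-gammaS) subtracted, reported as % inhibition of histamine signal.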
In general terms: Binding of GTPγS marks nucleotide exchange on a G protein.

Setting [1] is: symbol ! in Ki, test compound 4 μM, 1 μM histamine, read-out: percent inhibition of agonist-induced GTP-gammaS binding to H3.
Where [2] appears, read: 1 h, assay described in Example 8, symbol "!" in column headed Ki, read-out: Ki ("!": percent inhibition of agonist-induced GTP-gammaS binding to H3).
Setting [3] is: 1 h, assay of Example 8, symbol "!" in column headed Ki, read-out: percent inhibition of agonist-induced GTP-gammaS binding to H3.

The values that follow come from US20080051387A1, “TETRAHYDROPYRIDO[3,4-D]PYRIMIDINES AND RELATED ANALOGUES” (priority 2006, published 2008).

Usually inhibition stands for how much of the control response was suppressed.

Where two headings read alike, the source gives them in different places.

T1 sequence (Q9Y5N1 with tags, fused parts or gaps): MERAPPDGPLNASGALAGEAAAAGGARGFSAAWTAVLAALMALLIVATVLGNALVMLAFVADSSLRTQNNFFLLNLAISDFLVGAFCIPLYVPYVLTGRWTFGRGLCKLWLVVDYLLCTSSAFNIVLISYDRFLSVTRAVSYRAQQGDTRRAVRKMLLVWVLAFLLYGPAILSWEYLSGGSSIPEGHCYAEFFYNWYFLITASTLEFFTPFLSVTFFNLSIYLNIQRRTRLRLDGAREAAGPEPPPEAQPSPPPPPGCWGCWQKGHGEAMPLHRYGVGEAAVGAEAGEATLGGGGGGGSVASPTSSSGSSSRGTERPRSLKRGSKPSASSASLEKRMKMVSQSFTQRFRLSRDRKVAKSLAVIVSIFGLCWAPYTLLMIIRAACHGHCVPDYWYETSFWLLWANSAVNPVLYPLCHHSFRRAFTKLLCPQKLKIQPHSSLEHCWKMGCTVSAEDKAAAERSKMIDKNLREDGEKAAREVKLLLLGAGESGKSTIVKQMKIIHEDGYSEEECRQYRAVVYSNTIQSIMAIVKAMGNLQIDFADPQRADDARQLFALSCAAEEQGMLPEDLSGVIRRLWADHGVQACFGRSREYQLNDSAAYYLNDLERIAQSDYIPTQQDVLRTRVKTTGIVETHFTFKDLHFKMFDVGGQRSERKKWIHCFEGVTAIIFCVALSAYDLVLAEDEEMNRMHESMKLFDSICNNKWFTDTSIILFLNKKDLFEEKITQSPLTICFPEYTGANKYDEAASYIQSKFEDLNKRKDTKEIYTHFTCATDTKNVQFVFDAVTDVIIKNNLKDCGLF

Regarding `Clc1ccc(CN2CCc3nc(N4CCN(C5CCC5)CC4)ncc3C2)c(Cl)c1` [Compound 646, 2-(4-cyclobutylpiperazin-1-yl)-6-(2,4-dichlorobenzyl)-5,6,7,8-tetrahydropyrido[4,3-d]pyrimidine], the inhibition at 4 µM under setting [1] is not below 90%.
`CCCOc1ncccc1C(=O)N1CCc2cnc(N3CCN(C4CCC4)CC3)nc2CC1` [Compound 545, 2-(4-cyclobutylpiperazin-1-yl)-7-[(2-propoxypyridin-3-yl)carbonyl]-6,7,8,9-tetrahydro-5H-pyrimido[4,5-d]azepine]: the inhibition at 4 µM under setting [2] was not below 90%.
Turning to `c1ccc2c(CN3CCc4c(ncnc4N4CCN(C5CCC5)CC4)C3)ccnc2c1` [Compound 72, 4-(4-cyclobutylpiperazin-1-yl)-7-(quinolin-4-ylmethyl)-5,6,7,8-tetrahydropyrido[3,4-d]pyrimidine], the inhibition at 4 µM under setting [1] was not below 90%.
On to `O=C(c1cc(-c2ccc(Cl)cc2)oc1C(F)(F)F)N1CCc2cnc(N3CCN(C4CCC4)CC3)nc2CC1` [Compound 470, 7-[5-(4-chlorophenyl)-2-(trifluoromethyl)-3-furoyl]-2-(4-cyclobutylpiperazin-1-yl)-6,7,8,9-tetrahydro-5H-pyrimido[4,5-d]azepine], for which the inhibition at 4 µM under setting [2] is not below 90%.
Take `CC(C)CCN1CCc2cnc(N3CCN(C4CCC4)CC3)nc2CC1` [Compound 246, 2-(4-cyclobutylpiperazin-1-yl)-7-(3-methylbutyl)-6,7,8,9-tetrahydro-5H-pyrimido[4,5-d]azepine]: under setting [3], the inhibition at 4 µM was not below 90%.
`O=S(=O)(c1ccccc1)N1CCc2cnc(N3CCN(C4CCC4)CC3)nc2CC1` [Compound 12, 7-Benzenesulfonyl-2-(4-Cyclobutyl-piperazin-1-yl)-6,7,8,9-tetrahydro-5H-pyrimido[4.5-d]azepine]: the inhibition at 4 µM (test compound 4 μM, 1 μM histamine, read-out: percent inhibition of agonist-induced GTP-gammaS binding to H3) was not below 90%.
In the case of `c1nc2c(c(N3CCN(C4CCC4)CC3)n1)CCN(Cc1ccc(N3CCCC3)cc1)CC2` [Compound 182, 4-(4-cyclobutylpiperazin-1-yl)-7-(4-pyrrolidin-1-ylbenzyl)-6,7,8,9-tetrahydro-5H-pyrimido[4,5-d]azepine], the inhibition at 4 µM under setting [1] was not below 90%.
Consider `Cc1cccc(/C=C/C(=O)N2CCc3cnc(N4CCN(C5CCC5)CC4)nc3CC2)c1` [Compound 563, 2-(4-cyclobutylpiperazin-1-yl)-7-[(2E)-3-(3-methylphenyl)prop-2-enoyl]-6,7,8,9-tetrahydro-5H-pyrimido[4,5-d]azepine], for which, under setting [2], the inhibition at 4 µM is not below 90%.
Turning to `Cc1c(F)cccc1CN1CCc2cnc(N3CCN(C4CCC4)CC3)nc2CC1` [Compound 264, 2-(4-cyclobutylpiperazin-1-yl)-7-(3-fluoro-2-methylbenzyl)-6,7,8,9-tetrahydro-5H-pyrimido[4,5-d]azepine], under setting [3], the inhibition at 4 µM was not below 90%.
`CC(C)c1ccc(C(C)N2CCc3c(ncnc3N3CCN(C4CCC4)CC3)C2)cc1` (centres unmarked) [Compound 115, 4-(4-cyclobutylpiperazin-1-yl)-7-[1-(4-isopropylphenyl)ethyl]-5,6,7,8-tetrahydropyrido[3,4-d]pyrimidine]: the inhibition at 4 µM under setting [1] is not below 90%.
For the molecule `O=C(c1ccc2c(c1)OCO2)N1CCc2cnc(N3CCN(C4CCC4)CC3)nc2CC1` [Compound 377, 7-(1,3-benzodioxol-5-ylcarbonyl)-2-(4-cyclobutylpiperazin-1-yl)-6,7,8,9-tetrahydro-5H-pyrimido[4,5-d]azepine], under setting [3], the inhibition at 4 µM is not below 90%.
On to `COc1cscc1C(=O)N1CCc2cnc(N3CCN(C4CCC4)CC3)nc2CC1` [Compound 456, 2-(4-cyclobutylpiperazin-1-yl)-7-[(4-methoxy-3-thienyl)carbonyl]-6,7,8,9-tetrahydro-5H-pyrimido[4,5-d]azepine], for which, under setting [2], the inhibition at 4 µM is not below 90%.
As for `CCC(C)CN1CCc2cnc(N3CCN(C4CCC4)CC3)nc2CC1` (centres unmarked) [Compound 252, 2-(4-cyclobutylpiperazin-1-yl)-7-(2-methylbutyl)-6,7,8,9-tetrahydro-5H-pyrimido[4,5-d]azepine], the inhibition at 4 µM under setting [3] was not below 90%.
For `Cc1ccc(C(=O)N2CCc3c(ncnc3N3CCN(C4CCC4)CC3)C2)cc1` [Compound 24, 4-(4-cyclobutylpiperazin-1-yl)-7-(4-methylbenzoyl)-5,6,7,8-tetrahydropyrido[3,4-d]pyrimidine], the inhibition at 4 µM under setting [1] was not below 90%.
Same read-out and setting: under `O=C(C1CCCC1)N1CCc2c(ncnc2N2CCN(C3CCC3)CC2)C1` [Compound 54, 4-(4-cyclobutylpiperazin-1-yl)-7-(cyclopentylcarbonyl)-5,6,7,8-tetrahydropyrido[3,4-d]pyrimidine] stands not below 90%; under `CC(c1ccc(N2CCCC2)cc1)N1CCc2c(ncnc2N2CCN(C3CCC3)CC2)C1` (centres unmarked) [Compound 137, 4-(4-cyclobutylpiperazin-1-yl)-7-[1-(4-pyrrolidin-1-ylphenyl)ethyl]-5,6,7,8-tetrahydropyrido[3,4-d]pyrimidine], not below 90%; under `c1nc2c(c(N3CCN(C4CCC4)CC3)n1)CCN(Cc1ccc(N3CCOCC3)nc1)C2` [Compound 76, 4-(4-cyclobutylpiperazin-1-yl)-7-[(6-morpholin-4-ylpyridin-3-yl)methyl]-5,6,7,8-tetrahydropyrido[3,4-d]pyrimidine], not below 90%.
As to `CCCN1CCc2cnc(N3CCN(C4CCC4)CC3)nc2CC1` [Compound 247, 2-(4-cyclobutylpiperazin-1-yl)-7-propyl-6,7,8,9-tetrahydro-5H-pyrimido[4,5-d]azepine], the inhibition at 4 µM under setting [3] was not below 90%.
Turning to `O=C(c1ccc(Cl)c(Cl)c1)N1CCc2cnc(N3CCN(C4CCC4)CC3)nc2CC1` [Compound 396, 2-(4-cyclobutylpiperazin-1-yl)-7-(3,4-dichlorobenzoyl)-6,7,8,9-tetrahydro-5H-pyrimido[4,5-d]azepine], under setting [2], the inhibition at 4 µM is not below 90%.
`O=C(Cc1ccccc1C(F)(F)F)N1CCc2cnc(N3CCN(C4CCC4)CC3)nc2CC1` [Compound 295, 2-(4-cyclobutylpiperazin-1-yl)-7-{[2-(trifluoromethyl)phenyl]acetyl}-6,7,8,9-tetrahydro-5H-pyrimido[4,5-d]azepine]: the inhibition at 4 µM under setting [3] was not below 90%.
`Cc1c(F)cccc1CN1CCc2nc(N3CCN(C4CCC4)CC3)ncc2C1` [Compound 644, 2-(4-cyclobutylpiperazin-1-yl)-6-(3-fluoro-2-methylbenzyl)-5,6,7,8-tetrahydropyrido[4,3-d]pyrimidine]: the inhibition at 4 µM under setting [1] was not below 90%.
With `Cc1cccc(C(=O)N2CCc3cnc(N4CCN(C5CCC5)CC4)nc3CC2)c1` [Compound 187, 2-(4-cyclobutylpiperazin-1-yl)-7-(3-methylbenzoyl)-6,7,8,9-tetrahydro-5H-pyrimido[4,5-d]azepine], under setting [3], the inhibition at 4 µM is not below 90%.
Take `CC(C)C(=O)N1CCc2c(ncnc2N2CCN(C3CCC3)CC2)C1` [Compound 59, 4-(4-cyclobutylpiperazin-1-yl)-7-isobutyryl-5,6,7,8-tetrahydropyrido[3,4-d]pyrimidine]: the inhibition at 4 µM under setting [1] was not below 90%.
With `O=C(Cc1ccc(Cl)cc1Cl)N1CCc2cnc(N3CCN(C4CCC4)CC3)nc2CC1` [Compound 296, 2-(4-cyclobutylpiperazin-1-yl)-7-[(2,4-dichlorophenyl)acetyl]-6,7,8,9-tetrahydro-5H-pyrimido[4,5-d]azepine], the inhibition at 4 µM under setting [3] is not below 90%.
On to `O=C(c1ccccc1Oc1ccccc1)N1CCc2cnc(N3CCN(C4CCC4)CC3)nc2CC1` [Compound 422, 2-(4-cyclobutylpiperazin-1-yl)-7-(2-phenoxybenzoyl)-6,7,8,9-tetrahydro-5H-pyrimido[4,5-d]azepine], for which, under setting [2], the inhibition at 4 µM was not below 90%.
Consider `Cc1cccc(C(=O)N2CCc3c(ncnc3N3CCN(C4CCC4)CC3)C2)c1` [Compound 23, 4-(4-cyclobutylpiperazin-1-yl)-7-(3-methylbenzoyl)-5,6,7,8-tetrahydropyrido[3,4-d]pyrimidine], for which the inhibition at 4 µM under setting [1] was not below 90%.
Regarding `CC(Oc1cccc(Cl)c1)C(=O)N1CCc2cnc(N3CCN(C4CCC4)CC3)nc2CC1` (centres unmarked) [Compound 340, 7-[2-(3-chlorophenoxy)propanoyl]-2-(4-cyclobutylpiperazin-1-yl)-6,7,8,9-tetrahydro-5H-pyrimido[4,5-d]azepine], the inhibition at 4 µM under setting [3] is not below 90%.
`Cc1ccc(Oc2ncccc2C(=O)N2CCc3cnc(N4CCN(C5CCC5)CC4)nc3CC2)c(C)c1` [Compound 503, 2-(4-cyclobutylpiperazin-1-yl)-7-{[2-(2,4-dimethylphenoxy)pyridin-3-yl]carbonyl}-6,7,8,9-tetrahydro-5H-pyrimido[4,5-d]azepine]: under setting [2], the inhibition at 4 µM was not below 90%.
For `O=C(c1csc(-c2ccncc2)n1)N1CCc2cnc(N3CCN(C4CCC4)CC3)nc2CC1` [Compound 530, 2-(4-cyclobutylpiperazin-1-yl)-7-[(2-pyridin-4-yl-1,3-thiazol-4-yl)carbonyl]-6,7,8,9-tetrahydro-5H-pyrimido[4,5-d]azepine], the inhibition at 4 µM under setting [2] is not below 90%.
Regarding `CC(C)c1ccc(/C=C/C(=O)N2CCc3cnc(N4CCN(C5CCC5)CC4)nc3CC2)cc1` [Compound 559, 2-(4-cyclobutylpiperazin-1-yl)-7-[(2E)-3-(4-isopropylphenyl)prop-2-enoyl]-6,7,8,9-tetrahydro-5H-pyrimido[4,5-d]azepine], the inhibition at 4 µM under setting [2] was not below 90%.
On to `O=C(c1ccc(F)cc1)N1CCc2c(ncnc2N2CCN(C3CCC3)CC2)C1` [Compound 30, 4-(4-cyclobutylpiperazin-1-yl)-7-(4-fluorobenzoyl)-5,6,7,8-tetrahydropyrido[3,4-d]pyrimidine], for which the inhibition at 4 µM under setting [1] is not below 90%.
Regarding `Fc1ccc(CN2CCc3cnc(N4CCN(C5CCC5)CC4)nc3CC2)cc1` [Compound 232, 2-(4-cyclobutylpiperazin-1-yl)-7-(4-fluorobenzyl)-6,7,8,9-tetrahydro-5H-pyrimido[4,5-d]azepine], the inhibition at 4 µM under setting [3] was not below 90%.
